# Laboratory results as given in paper PMC10451377, “Rationally Designed Pyrimidine Compounds: Promising Novel Antibiotics for the Treatment of Staphylococcus aureus-Associated Bovine Mastitis” (Antibiotics, 2023).
# How the values were obtained:
# [1] = Recovery of PC206 from quarter milk after intramammary infusion; format: in vivo; conditions: cows
# Description: The innocuity of PC206 was evaluated in cows, as previously described for other test substances. Following morning milking, each of the four mammary gland quarters […] was infused with various doses of PC206 (100, 250, 500 mg) or saline as a negative control. […] Cows were milked using an individual quarter-milking unit in order to measure individual quarter-milk production. PC206 concentration in milk was also measured; milk samples were diluted with an equal volume of isopropanol and washed 3 times with hexane. PC206 was extracted using ethyl acetate, filtered on Na2SO4, and evaporated. The dried samples were diluted 80:20 in ACN:H2O containing an internal standard. The content of PC206 was determined using single-ion monitoring (SIMS) on UPLC-MS.
# [2] = MTT assay; format: cell-based; conditions: human, HepG2 cells
# [3] = tested on: Bovine S. aureus; assay: Susceptibility of isolate panel (MIC50, MIC90, range); format: cell-based, Staphylococcus aureus; conditions: Bovine S. aureus, 48 isolates
# Source text: (§1) Reference strains for this study (S. aureus ATCC 29213, ATCC 29740 [bovine mastitis strain Newbould], S. epidermidis ATCC 12228, E. coli ATCC 35695, E. faecalis ATCC 29212) were obtained from the American Type Culture Collection (ATCC, Rockville, MD). S. aureus strains CMRSA-10 and CMRSA-2 were obtained from the Laboratoire de santé publique du Québec (LSPQ, Sainte-Anne-de-Bellevue, QC, Canada) and are Canadian CA-MRSA USA-300 and HA-MRSA USA-100 clones, respectively. The strain E. coli imp4213 (lptD), used as a control in MIC assays, is a derivative of E. coli ATCC 35695 (E. coli MC4100) with an increased membrane permeability. […] Other MRSA strains used in this study are clinical isolates of human origin obtained from the microbiology laboratory of the Centre Hospitalier Universitaire de Sherbrooke (CHUS, Sherbrooke, QC, Canada). Bovine mastitis strains (S. aureus, S. chromogenes, S. haemolyticus, S. hominis, S. simulans) were obtained from the Canadian Bovine Mastitis and Milk Quality Research Network (CBRQMN, St-Hyacinthe, QC, Canada). Among these strains, S. aureus 2117 is a high producer of biofilm and was used in the biofilm-eradication assay. S. epidermidis isolates were provided by Centre de Recherche en Infectiologie (CRI) de Québec (Québec, QC, Canada).
# (§2) The antibacterial activity of the most promising compound, PC206, was also evaluated against larger groups of clinical isolates of human and animal origin. The MIC50 and MIC90 values represented the concentrations of drug required to inhibit the growth of 50% and 90% of the bacterial strains tested, respectively.
# [4] = tested on: MRSA; assay: as above; format: cell-based, Staphylococcus aureus; conditions: 42 isolates
# Source text: as §1, §2
# [5] = Metabolic stability; format: in vitro ADME; conditions: mouse, CD-1 female mice liver S9 fraction, 60 min, mono-exponential decay model, read-out: Half-life (T1/2)
# Description: All incubations were performed minimally in triplicate. A total of 1 mL of mice liver S9 fraction (XenoTech, Kansas City, KS, USA) was fortified with 50 μL of NADPH-regenerating solution A and 10 μL of solution B (Corning BD Biosciences catalog no. 451200) and preincubated at 37 °C for 5 min prior to the addition of PC206. Immediately after fortification of PC206 into the mice liver S9 fraction containing the NADPH-regeneration system, the sampling points were taken at 2, 5, 10, 15, 30, 45 and 60 min for metabolic stability experiments (i.e., the substrate concentration was 10 μM). Samples of 50 μL were taken and mixed with 250 μL of the internal standard solution (caffeine) in microcentrifuge tubes. The samples were centrifuged at 12,000× g for 10 min and 200 μL of the supernatant was transferred into an injection vial for HPLC-MS analysis. A Q Exactive Orbitrap Mass Spectrometer was interfaced with a Vanquish Flex UHPLC system (Thermo Fisher Scientific, Rochester, NY, USA). […] Targeted drug quantification was performed by MS detection using specific precursor masses based on monoisotopic masses (i.e., [M + H]^+ ions). Quantification was performed by extracting specific precursor ions using a 5 ppm mass window.
# [6] = tested on: Escherichia coli ΔlptD4213; assay: microbe, parasite or virus in culture; format: cell-based; conditions: read-out: Broth Microdilution MIC
# Source text: as §1
# [7] = tested on: Bacillus subtilis xpt-lacZ; assay: Broth microdilution MIC; format: cell-based; conditions: B. subtilis xpt-lacZ, read-out: Broth Microdilution MIC
# [8] = LDH release assay; format: cell-based; conditions: human, HepG2 cells
# [9] = tested on: Staphylococcus aureus CMRSA-2; assay: Broth microdilution MIC; format: cell-based; conditions: CMRSA2, S. aureus CMRSA-2, read-out: Broth Microdilution MIC
# Source text: as §1
# [10] = tested on: Staphylococcus aureus CMRSA-10; assay: Broth microdilution MIC; format: cell-based; conditions: CMRSA10, S. aureus CMRSA-10, read-out: Broth Microdilution MIC
# Source text: as §1
# [11] = MTT assay; format: cell-based; conditions: bovine, MAC-T cells
# [12] = Staphylococcus aureus, read-out: MIC50
# [13] = Staphylococcus aureus, read-out: MIC90
smiles,measurement,setting,value
CCCCCCNc1cc(N)nc(N)n1 [PC206],Time the concentration in quarter milk remained above the MIC (8 µg/mL),[1]; single intramammary infusion of 100 mg,over 2 h
same,Time the concentration in quarter milk remained above the MIC (8 µg/mL),[1]; single intramammary infusion of 250 mg,> 4 h
same,Time the concentration in quarter milk remained above the MIC (8 µg/mL),[1]; single intramammary infusion of 500 mg,about 8 h
same,CC50 at 24 h,[2],160 ± 31 µM
same,MIC Range,[3],0.5 to 64 µg/mL
same,MIC50,[3]; [12],8 µg/mL
same,MIC90,[3]; [13],16 µg/mL
same,MIC Range,[4],2 to 128 µg/mL
same,MIC50,[4]; [12],8 µg/mL
same,MIC90,[4]; [13],16 µg/mL
same,half-life at 10 µM,[5],1.39 h
same,MIC,[6],> 128 µg/mL
same,MIC,[7],128 µg/mL
same,CC50 at 24 h,[8],149 ± 24 µM
same,MIC,[9],8 µg/mL
same,MIC,[10],4 µg/mL
same,CC50 at 24 h,[11]; 24 h,317 ± 43 µM
same,CC50 at 24 h,[11]; converted from μM,66 µg/mL
